Patent US8563551B2, “Method for preventing or treating a disease related to the glucocorticoid receptor” (Santen Pharmaceutical Co., Ltd., priority 2006, dated 2013)

What follows are molecules tested against T1, Recombinant human GR (Homo sapiens, UniProt P04150) (assay: GR competitor assay (receptor competitor assay by fluorescence polarization, Invitrogen kit P2816)). Settings: 20 μM test compound solution (10 μL per well plus 5 μL 4×GS1 and 5 μL 4×GR); relative to 2 mM dexamethasone positive control; ratios of 100% or more are indicated by 100%; read-out: GR Binding ratio (%).
T1 construct: purchased Invitrogen P2816
T1 sequence (P04150 1-777): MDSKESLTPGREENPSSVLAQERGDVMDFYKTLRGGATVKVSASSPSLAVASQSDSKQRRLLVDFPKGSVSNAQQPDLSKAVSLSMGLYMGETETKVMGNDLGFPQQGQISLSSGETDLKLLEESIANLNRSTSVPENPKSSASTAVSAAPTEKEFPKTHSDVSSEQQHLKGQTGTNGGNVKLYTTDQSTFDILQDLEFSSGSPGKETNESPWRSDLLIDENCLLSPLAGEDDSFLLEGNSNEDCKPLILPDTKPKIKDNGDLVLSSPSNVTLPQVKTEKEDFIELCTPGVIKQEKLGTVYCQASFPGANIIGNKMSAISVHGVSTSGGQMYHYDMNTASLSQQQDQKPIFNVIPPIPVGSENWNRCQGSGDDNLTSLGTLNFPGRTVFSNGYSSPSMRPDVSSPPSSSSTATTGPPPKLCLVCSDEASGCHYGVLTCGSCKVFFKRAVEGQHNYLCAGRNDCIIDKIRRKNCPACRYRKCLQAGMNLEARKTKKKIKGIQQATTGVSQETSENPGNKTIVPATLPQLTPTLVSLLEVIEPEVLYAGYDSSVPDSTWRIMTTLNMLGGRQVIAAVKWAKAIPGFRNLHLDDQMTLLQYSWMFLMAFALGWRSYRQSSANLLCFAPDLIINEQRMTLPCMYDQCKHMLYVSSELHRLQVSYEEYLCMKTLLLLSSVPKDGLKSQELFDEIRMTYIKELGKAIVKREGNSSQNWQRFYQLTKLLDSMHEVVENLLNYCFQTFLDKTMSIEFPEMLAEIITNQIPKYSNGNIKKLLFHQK
Experimental: In order to evaluate a binding activity to GR, a receptor competitor assay was carried out by a fluorescence polarization method. In the assay, a GR competitor assay kit (manufactured by Invitrogen, cat No. P2816) was used, and a procedure was carried out according to the protocol attached to the kit. Hereinafter, the specific method will be described.
GR screening buffer: A buffer containing 10 mM potassium phosphate (pH 7.4), 20 mM sodium molybdate (Na2MoO4), 0.1 mM ethylene diamine tetraacetic acid (EDTA), 5 mM dithiothreitol (DTT), 0.1 mM stabilizing peptide and 2% dimethylsulfoxide was prepared.
4×GS1 solution: Fluormone™ GS1, which is a fluorescent glucocorticoid ligand, was diluted with GR screening buffer, whereby a 4 nM solution was prepared.
4×GR solution: Recombinant human GR was diluted with GR screening buffer, whereby a 16 nM solution was prepared.
After a test compound was dissolved in dimethylsulfoxide, the resulting solution was diluted with GR screening buffer, whereby a 20 μM test compound solution was prepared.
1) The test compound solution was added in an amount of 10 μL into each well of a 384-well plate, and then, 4×GS1 solution and 4×GR solution were added in an amount of 5 μL into each well, respectively.
2) The plate was incubated in a dark place at room temperature for 2 to 4 hours.
3) By using a multimode plate reader, Analyst™ HT (manufactured by LJL Biosystems), fluorescence polarization of each well was measured. As the blank, a well containing GR screening buffer in place of the test compound and 4×GS1 solution was used.
4) The same procedure as that in the above 1) to 3) was carried out except that GR screening buffer was used in place of the test compound solution, and the obtained result was taken as the negative control.
5) The same procedure as that in the above 1) to 3) was carried out except that 2 mM dexamethasone was used in place of the test compound solution, and the obtained result was taken as the positive control.
A GR binding ratio (%) was calculated from the following equation. GR binding ratio(%)=100×[1−(fluorescence polarization of test compound solution−fluorescence polarization of positive control solution)/(fluorescence polarization of negative control solution fluorescence polarization of positive control solution)] (Test Results and Discussion)

First: COc1cc(OS(=O)(=O)CC(C)C)ccc1-c1ccc2c(c1COC(=O)c1ccc(C)s1)C(C)=CC(C)(C)N2 [Compound 2-3]
Second: COc1cc(OS(=O)(=O)C(C)C)ccc1-c1ccc2c(c1COC(=O)c1ccc(C)s1)C(C)=CC(C)(C)N2 [Compound 2-4, 6-(4-Isopropylsulfonyloxy-2-methoxyphenyl)-5-(5-methylthiophen-2-ylcarbonyloxymethyl)-2,2,4-trimethyl-1,2-dihydroquinoline]
The inhibition at 20 µM (stock) of the first is lower: 97% for the first, 100% for the second.

`COc1cc(OS(=O)(=O)C2CCCC2)ccc1-c1ccc2c(c1COC(=O)c1ccc(C)s1)C(C)=CC(C)(C)N2` [Compound 2-5, 6-(4-Cyclopentylsulfonyloxy-2-methoxyphenyl)-5-(5-methylthiophen-2-ylcarbonyloxymethyl)-2,2,4-trimethyl-1,2-dihydroquinoline] and `COc1cc(OS(=O)(=O)C2CC2)ccc1-c1ccc2c(c1COC(=O)c1ccc(C)s1)C(C)=CC(C)(C)N2` [Compound 2-9, 6-(4-Cyclopropylsulfonyloxy-2-methoxyphenyl)-5-(5-methylthiophen-2-ylcarbonyloxymethyl)-2,2,4-trimethyl-1,2-dihydroquinoline] are the same in inhibition at 20 µM (stock): 100% for the first, 100% for the second.

`COc1cc(OS(C)(=O)=O)ccc1-c1ccc2c(c1COC(=O)c1ccc(C)s1)C(C)=CC(C)(C)N2` [Compound 2-6, 6-(2-Methoxy-4-methylsulfonyloxyphenyl)-5-(5-methylthiophen-2-ylcarbonyloxymethyl)-2,2,4-trimethyl-1,2-dihydroquinoline] and `CCS(=O)(=O)Oc1ccc(-c2ccc3c(c2COC(=O)c2ccc(C)s2)C(C)=CC(C)(C)N3)c(OC)c1` [Compound 2-7, 6-(4-Ethylsulfonyloxy-2-methoxyphenyl)-5-(5-methylthiophen-2-ylcarbonyloxymethyl)-2,2,4-trimethyl-1,2-dihydroquinoline] are the same in inhibition at 20 µM (stock): 100% for the first, 100% for the second.

First: CCCCS(=O)(=O)Oc1ccc(-c2ccc3c(c2COC(=O)c2ccc(C)s2)C(C)=CC(C)(C)N3)c(OC)c1 [Compound 2-8, 6-(4-Butylsulfonyloxy-2-methoxyphenyl)-5-(5-methylthiophen-2-ylcarbonyloxymethyl)-2,2,4-trimethyl-1,2-dihydroquinoline]
Second: COC(=O)Oc1ccc(-c2ccc3c(c2COC(=O)c2ccc(C)s2)C(C)=CC(C)(C)N3)c(OC)c1 [Compound 3-1, 6-(2-Methoxy-4-methoxycarbonyloxyphenyl)-5-(5-methylthiophen-2-ylcarbonyloxymethyl)-2,2,4-trimethyl-1,2-dihydroquinoline]
The inhibition at 20 µM (stock) of the first is higher: 100% for the first, 91% for the second.

With `COc1cc(OC(=O)N2CCOCC2)ccc1-c1ccc2c(c1COC(=O)c1ccc(C)s1)C(C)=CC(C)(C)N2` [Compound 4-3, 6-[2-Methoxy-4-(morpholin-4-ylcarbonyloxy)phenyl]-5-(5-methylthiophen-2-ylcarbonyloxymethyl)-2,2,4-trimethyl-1,2-dihydroquinoline] the inhibition at 20 µM (stock) was 94%.

For `COc1cc(OC(=O)Nc2cccnc2)ccc1-c1ccc2c(c1COC(=O)c1ccc(C)s1)C(C)=CC(C)(C)N2` [Compound 4-1, 6-[2-Methoxy-4-(pyridin-3-ylaminocarbonyloxy)phenyl]-5-(5-methylthiophen-2-ylcarbonyloxymethyl)-2,2,4-trim ethyl-1,2-dihydroquinoline], the inhibition at 20 µM was 100%.
